Data taken from US20180184654A1, “Pesticidal Compositions Comprising a Triazole Compound” (BASF Agro B.V., priority 2015, published 2018).

Legend:
Leptosphaeria nodorum = assay: Microtest: activity against wheat leaf spots caused by Leptosphaeria nodorum (Leptno); type: cell-based; conditions: MTP, 405 nm, 7 days after inoculation
Protocol: (§1) The active compounds were formulated separately as a stock solution having a concentration of 10000 ppm in dimethyl sulfoxide.
(§2) The stock solutions were mixed according to the ratio, pipetted onto a micro titer plate (MTP) and diluted with water to the stated concentrations. A spore suspension of Leptosphaeria nodorum in an aqueous biomalt or yeast-bactopeptone-glycerine solution was then added. The plates were placed in a water vapor-saturated chamber at a temperature of 18° C. Using an absorption photometer, the MTPs were measured at 405 nm 7 days after the inoculation.
(§3) The measured parameters were compared to the growth of the active compound-free control variant (100%) and the fungus-free and active compound-free blank value to determine the relative growth in % of the pathogens in the respective active compounds.
(§4) These percentages were converted into efficacies.
(§5) The expected efficacies of active compound mixtures were determined using Colby's formula [R. S. Colby, “Calculating synergistic and antagonistic responses of herbicide combinations”, Weeds 15, 20-22 (1967)] and compared with the observed efficacies.

Septoria tritici = assay: Microtest: activity against leaf blotch on wheat caused by Septoria tritici (Septtr); type: cell-based; conditions: MTP, 405 nm, 7 days after inoculation
Protocol: as §1
as §2, with “Septoria tritici” for “Leptosphaeria nodorum”
as §3, §4, §5

With `CCN(C(=O)c1cnn(C(C)C2(C#N)CC2)c1C)c1ccnnc1` (stereo not shown) [II-4, 1-[1-(1-cyanocyclopropyl)ethyl]-N-ethyl-5-methyl-N-pyridazin-4-yl-pyrazole-4-carboxamide] the Observed efficacy (Leptosphaeria nodorum; single compound at 63 ppm) was 2%.

`CCN(C(=O)c1cnn(C(C)C(C)F)c1C)c1ccnnc1` (stereo not shown) [II-5, N-ethyl-1-(2-fluoro-1-methyl-propyl)-5-methyl-N-pyridazin-4-yl-pyrazole-4-carboxamide] showed an Observed efficacy (Leptosphaeria nodorum; single compound at 63 ppm) of 12% and an Observed efficacy (Septoria tritici; single compound at 16 ppm) of 9%.

Work on `CC(O)(Cn1cncn1)c1ccc(Oc2ccc(Cl)cc2)cc1C(F)(F)F` (stereo not shown) [I-3, 2-[4-(4-chlorophenoxy)-2-(trifluoromethyl)phenyl]-1-(1,2,4-triazol-1-yl)propan-2-ol] yielded an Observed efficacy (Leptosphaeria nodorum; single compound at 0.016 ppm) of 23% and an Observed efficacy (Septoria tritici; single compound at 0.001 ppm) of 6%.

For `CCN(C(=O)c1cnn(C(C)C(C)C)c1C)c1ccnnc1` (stereo not shown) [II-2, 1-(1,2-dimethylpropyl)-N-ethyl-5-methyl-N-pyridazin-4-yl-pyrazole-4-carboxamide], the Observed efficacy (Leptosphaeria nodorum; single compound at 63 ppm) was 7% and the Observed efficacy (Septoria tritici; single compound at 4 ppm) was 7%.
